ChEMBL document CHEMBL1143295, “Discovery of potent inhibitors of interleukin-2 inducible T-cell kinase (ITK) through structure-based drug design” (Bioorg Med Chem Lett, 2009)

How the values were obtained:
Insulin receptor = Insulin receptor (Homo sapiens, UniProt P06213); assay: Inhibition of IRK
[1] = target: T1, Tyrosine-protein kinase ITK/TSK (Homo sapiens, UniProt Q08881); assay: Inhibition of ITK by DELFIA method
T1 sequence (Q08881 whole entry): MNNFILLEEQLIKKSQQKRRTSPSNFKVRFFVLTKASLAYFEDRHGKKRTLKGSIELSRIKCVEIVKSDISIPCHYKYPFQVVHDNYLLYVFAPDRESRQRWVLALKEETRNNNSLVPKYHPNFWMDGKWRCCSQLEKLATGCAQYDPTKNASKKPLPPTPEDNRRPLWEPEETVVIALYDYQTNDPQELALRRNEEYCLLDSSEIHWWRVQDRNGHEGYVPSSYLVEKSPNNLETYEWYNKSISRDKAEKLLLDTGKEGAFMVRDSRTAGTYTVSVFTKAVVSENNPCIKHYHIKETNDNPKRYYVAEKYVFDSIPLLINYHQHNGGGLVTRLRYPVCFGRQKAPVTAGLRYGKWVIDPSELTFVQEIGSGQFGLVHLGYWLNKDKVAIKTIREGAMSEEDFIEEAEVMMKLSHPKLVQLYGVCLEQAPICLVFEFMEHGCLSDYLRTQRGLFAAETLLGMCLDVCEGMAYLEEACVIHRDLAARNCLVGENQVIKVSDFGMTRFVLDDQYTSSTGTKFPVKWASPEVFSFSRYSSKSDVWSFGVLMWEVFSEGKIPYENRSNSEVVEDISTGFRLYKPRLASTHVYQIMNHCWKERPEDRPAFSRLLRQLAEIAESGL

[2] = target: T1, Tyrosine-protein kinase ITK/TSK; assay: Inhibition of human ITK expressed in chicken DT40 cells assessed as calcium influx by FLIPR; format: cell-based
[3] = Selectivity ratio of IC50 for IRK to IC50 for ITK

Chain of Insulin receptor (P06213 28-758 limits assumed): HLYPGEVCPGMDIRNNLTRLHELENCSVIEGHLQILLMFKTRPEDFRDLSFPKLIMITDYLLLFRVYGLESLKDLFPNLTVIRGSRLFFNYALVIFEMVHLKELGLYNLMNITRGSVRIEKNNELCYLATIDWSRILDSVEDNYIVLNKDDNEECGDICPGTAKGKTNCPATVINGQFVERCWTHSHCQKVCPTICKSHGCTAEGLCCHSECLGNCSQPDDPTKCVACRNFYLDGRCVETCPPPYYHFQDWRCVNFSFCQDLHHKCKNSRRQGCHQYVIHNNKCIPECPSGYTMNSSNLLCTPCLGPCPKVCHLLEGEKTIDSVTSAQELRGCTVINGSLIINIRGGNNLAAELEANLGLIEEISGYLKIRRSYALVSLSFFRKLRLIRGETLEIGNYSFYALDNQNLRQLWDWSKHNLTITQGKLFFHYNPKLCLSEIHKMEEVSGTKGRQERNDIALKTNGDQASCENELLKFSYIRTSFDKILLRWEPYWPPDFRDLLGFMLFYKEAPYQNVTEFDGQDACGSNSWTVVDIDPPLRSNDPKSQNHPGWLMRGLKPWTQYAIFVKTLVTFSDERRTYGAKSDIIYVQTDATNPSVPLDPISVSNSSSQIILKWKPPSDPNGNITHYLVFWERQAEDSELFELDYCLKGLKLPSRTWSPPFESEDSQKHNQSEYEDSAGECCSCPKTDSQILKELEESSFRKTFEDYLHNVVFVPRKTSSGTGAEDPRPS
Chain of Insulin receptor (P06213 763-1382 limits assumed): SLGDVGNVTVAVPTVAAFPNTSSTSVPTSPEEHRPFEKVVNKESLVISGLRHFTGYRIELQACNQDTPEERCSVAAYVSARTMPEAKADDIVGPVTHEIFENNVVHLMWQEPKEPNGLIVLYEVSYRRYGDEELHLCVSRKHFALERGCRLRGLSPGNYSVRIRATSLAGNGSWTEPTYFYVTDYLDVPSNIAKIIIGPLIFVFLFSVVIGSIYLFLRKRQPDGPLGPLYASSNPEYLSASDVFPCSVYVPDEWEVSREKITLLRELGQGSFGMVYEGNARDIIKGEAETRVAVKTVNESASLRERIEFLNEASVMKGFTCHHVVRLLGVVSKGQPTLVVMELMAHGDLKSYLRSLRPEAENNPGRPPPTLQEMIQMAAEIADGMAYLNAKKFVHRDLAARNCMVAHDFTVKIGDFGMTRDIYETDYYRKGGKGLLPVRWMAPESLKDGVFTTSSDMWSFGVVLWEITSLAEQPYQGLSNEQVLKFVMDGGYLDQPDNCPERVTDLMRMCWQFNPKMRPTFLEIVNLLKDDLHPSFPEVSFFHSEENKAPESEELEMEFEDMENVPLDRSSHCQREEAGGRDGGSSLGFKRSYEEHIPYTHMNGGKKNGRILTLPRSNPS

IC50 (Insulin receptor) [µM]	IC50 [1] [µM]	IC50 [2] [µM]	Ratio IC50 [3]	SMILES
> 6	–	–	–	CN(C(=O)c1ccccc1)c1ccc2c(c1)[nH]/c(=N\C(=O)c1ncco1)n2CCC(N)=O
> 6	–	–	–	CN(C(=O)c1ccccc1)c1ccc2c(c1)nc(NC(=O)c1ccc(C#N)cc1)n2CCC(N)=O
> 6	0.17	> 5	–	COc1ccc(C(=O)Nc2nc3cc(N(C)C(=O)c4ccccc4)ccc3n2CCC(N)=O)cc1
5.8	–	–	–	CN(C(=O)c1ccccc1)c1ccc2c(c1)[nH]/c(=N\C(=O)c1cccc3ccccc13)n2CCC(N)=O
> 6	–	–	–	CN(C(=O)c1ccccc1)c1ccc2c(c1)[nH]/c(=N\C(=O)c1cccc(-c3ccccc3)c1)n2CCC(N)=O
> 6	–	–	–	CN(C(=O)c1ccccc1)c1ccc2c(c1)[nH]/c(=N\C(=O)c1ccc(-c3ccccc3)s1)n2CCC(N)=O
> 6	–	–	–	CN(C(=O)c1ccccc1)c1ccc2c(c1)nc(NC(=O)c1ccno1)n2CCC(N)=O
> 6	–	–	–	CN(C(=O)c1ccccc1)c1ccc2c(c1)[nH]/c(=N\C(=O)c1ccc(-c3cnccn3)s1)n2CCC(N)=O
–	–	–	> 1000	CN(C(=O)c1ccccc1)c1ccc2c(c1)[nH]/c(=N\C(=O)c1cocn1)n2CCC(N)=O
> 6	–	–	–	CN(C(=O)c1ccccc1)c1ccc2c(c1)nc(NC(=O)c1ccc(-c3cocn3)s1)n2CCC(N)=O
> 6	–	–	–	CN(C(=O)c1ccccc1)c1ccc2c(c1)[nH]/c(=N\C(=O)c1ccc(N3CCCC3)s1)n2CCC(N)=O
> 6	–	–	–	CC(=O)c1ccc(C(=O)Nc2nc3cc(N(C)C(=O)c4ccccc4)ccc3n2CCC(N)=O)s1
> 6	–	–	–	CN(C(=O)c1ccccc1)c1ccc2c(c1)nc(NC(=O)c1ccc(-c3nccs3)s1)n2CCC(N)=O
> 6	–	–	–	CN(C(=O)c1ccccc1)c1ccc2c(c1)nc(NC(=O)c1ccc(Oc3ccccc3)s1)n2CCC(N)=O
1.6	0.13	> 5	–	CN(C(=O)c1ccccc1)c1ccc2c(c1)[nH]/c(=N\C(=O)c1cncs1)n2CCC(N)=O
> 6	–	–	–	CN(C(=O)c1ccccc1)c1ccc2c(c1)nc(NC(=O)c1ccc(C(=O)c3ccccc3)s1)n2CCC(N)=O
> 6	–	–	–	CN(C(=O)c1ccccc1)c1ccc2c(c1)[nH]/c(=N\C(=O)c1ccc(-c3csc(N)n3)s1)n2CCC(N)=O
> 6	–	–	–	CN(C(=O)c1ccccc1)c1ccc2c(c1)[nH]/c(=N\C(=O)c1ccc(-c3ccccc3)cc1)n2CCC(N)=O
> 6	–	–	–	CN(C(=O)c1ccccc1)c1ccc2c(c1)nc(NC(=O)c1ccc(-c3ccc(F)nc3)s1)n2CCC(N)=O
> 6	–	–	–	CN(C(=O)c1ccccc1)c1ccc2c(c1)nc(NC(=O)c1ccc(-c3ccnc(C#N)c3)s1)n2CCC(N)=O

IC50 (Insulin receptor) [µM]	IC50 [1] [µM]	IC50 [2] [µM]	Ratio IC50 [3]	SMILES
> 6	0.15	> 3.2	–	CN(C(=O)c1ccccc1)c1ccc2c(c1)nc(NC(=O)c1ccc(N3CCNCC3)s1)n2CCC(N)=O
> 6	–	–	–	CC(C)C(=O)c1ccc(C(=O)Nc2nc3cc(N(C)C(=O)c4ccccc4)ccc3n2CCC(N)=O)s1
> 6	–	–	–	CN(C(=O)c1ccccc1)c1ccc2c(c1)[nH]/c(=N\C(=O)c1ccc(-c3ccccn3)s1)n2CCC(N)=O
> 6	–	–	–	CN(C(=O)c1ccccc1)c1ccc2c(c1)[nH]/c(=N\C(=O)c1ccc(-c3ncco3)s1)n2CCC(N)=O
> 6	–	–	–	CN(C(=O)c1ccccc1)c1ccc2c(c1)[nH]/c(=N\C(=O)c1ccc(-c3cncc(C#N)c3)s1)n2CCC(N)=O
> 6	–	–	–	CN(C(=O)c1ccccc1)c1ccc2c(c1)[nH]/c(=N\C(=O)c1ccc(-c3cccnc3)s1)n2CCC(N)=O
> 6	–	–	–	CN(C(=O)c1ccccc1)c1ccc2c(c1)nc(NC(=O)c1ccc(OCc3ccccc3)s1)n2CCC(N)=O
> 6	–	–	–	CN(C(=O)c1ccccc1)c1ccc2c(c1)nc(NC(=O)c1ccc(-c3ccnc(F)c3)s1)n2CCC(N)=O
6.1	0.34	> 5	–	CN(C(=O)c1ccccc1)c1ccc2c(c1)nc(NC(=O)c1cscn1)n2CCC(N)=O
> 6	–	–	–	CN(C(=O)c1ccccc1)c1ccc2c(c1)nc(NC(=O)c1ccc3ccccc3c1)n2CCC(N)=O
> 6	–	–	–	CN(C(=O)c1ccccc1)c1ccc2c(c1)nc(NC(=O)c1ccc(Br)cc1)n2CCC(N)=O
> 6	0.17	> 5	–	CN(C(=O)c1ccccc1)c1ccc2c(c1)nc(NC(=O)c1cocn1)n2CCC(N)=O
> 6	–	–	–	CN(C(=O)c1ccccc1)c1ccc2c(c1)[nH]/c(=N\C(=O)c1ccc(-c3ccncc3)s1)n2CCC(N)=O
0.63	0.015	0.1	–	CN(C(=O)c1ccccc1)c1ccc2c(c1)nc(NC(=O)c1ccc(Br)s1)n2CCC(N)=O
0.24	–	–	–	CN(C(=O)c1ccccc1)c1ccc2c(c1)nc(NC(=O)c1ccsc1)n2CCC(N)=O
> 6	–	–	–	CN(C(=O)c1ccccc1)c1ccc2c(c1)[nH]/c(=N\C(=O)c1ccc(N3CCCCC3)s1)n2CCC(N)=O
> 6	0.074	> 3.2	–	CN(C(=O)c1ccccc1)c1ccc2c(c1)nc(NC(=O)c1ccc(N3CCOCC3)s1)n2CCC(N)=O
> 6	–	–	–	CN(C(=O)c1ccccc1)c1ccc2c(c1)[nH]/c(=N\C(=O)c1ccc(-c3ccc(C#N)nc3)s1)n2CCC(N)=O
> 6	0.18	> 5	> 1000	CN(C(=O)c1ccccc1)c1ccc2c(c1)[nH]/c(=N\C(=O)c1cnco1)n2CCC(N)=O
